Results published in patent US20170368082A1, “FORMULATIONS OF BRINCIDOFOVIR” (priority 2016, published 2017).
Values joined by “and” are separate entries in the source; they are usually repeats but may differ in a detail not shown here. Equal entries are not always repeated.

Test: Phase 2 toxicokinetics of brincidofovir and cidofovir in plasma
Type: in vivo, Sprague-Dawley CD rats
Design: Imputed Concentration, Mean: unit: ng/mL
Conditions: plasma; for C (Concentration), individual animals: 15 mg/kg; for Imputed Concentration, individual animals / Imputed Concentration, Mean: BLQ imputed as zero
Method: Plasma samples (108) were collected 2 hours following the initiation of dosing on Day 1 and Day 7 (Group 1), or at 1, 2, 8, and 24 hours following the initiation of dosing on Day 1, and prior to administration and at 2, 8, and 24 hours following the initiation of dosing on Day 7 (Groups 2 and 3), and analyzed to determine the concentrations of brincidofovir and the metabolite, cidofovir), by LC/MS/MS.
Approximately 0.4 mL of whole blood was obtained via the tail vein from each animal at each time point. Animals were not fasted prior to blood collection. Blood was collected into tubes containing K2EDTA anticoagulant and placed on wet ice in an upright position, per facility SOP prior to processing. Plasma was separated by centrifugation (10 minutes at approximately 2000 g, at approximately 2-8° C.). Approximately 0.10 mL of plasma was transferred into a single cryotube appropriately labeled with study number, animal number, time point, date of sampling and sample type. Remaining plasma was transferred into a second cryotube and retained as a backup sample. Plasma frozen at approximately −80±10° C. within approximately 2 hours after collection of each blood sample until analysis. Animals were euthanized (CO2 inhalation) after the final blood collection.
In general, TK parameters were estimated using mean plasma concentrations of brincidofovir and cidofovir derived from the composite blood sampling design using Phoenix WinNonLin (V 6.3).
A composite blood sampling design was used such that each rat was sampled twice per sampling day. Blood was collected via tail vein from unanesthetized animals into tubes containing anticoagulant and placed on wet ice in an upright position. Animals were not fasted prior to blood collection. Plasma was separated by centrifugation (for 10 minutes at approximately 2000 g, at approximately 2-8° C.), and transferred into individually labeled cryotubes. All cryotubes containing the collected plasma samples were appropriately labeled as to study number, animal number, time point, date of sampling and sample type. All plasma samples were obtained and frozen at approximately −80° C. (±10° C.) within approximately 2 hours after collection of each blood sample until analysis.
Rat plasma bioanalysis was conducted by Pyxant Laboratories. Plasma samples were analyzed for concentrations of brincidofovir and cidofovir using a method based upon protein precipitation extraction followed by LC-MS/MS analysis; calibration ranges for brincidofovir and cidofovir were 1.00-1500 ng/mL and 5.00-750 ng/mL, respectively, (Pyxant study number 3025) for a 50 μL aliquot of rat plasma. Sample analysis for ISR was not performed as part of this non-GLP study.
For the generation of Mean Profiles, all sample concentrations that were below the limit of quantitation (BLQ) were set to 0.
All pharmacokinetic parameter estimates were completed using a Non-Compartmental Model (Model 200-202 for IV infusion administration). The AUClast and AUCinf were calculated using the linear up log down trapezoidal rule.

[1] = brincidofovir 1 mg/kg 2-h IV infusion, female rats, Day 7, 0 h
[2] = brincidofovir 1 mg/kg 2-h IV infusion, female rats, Day 7, 24 h
[3] = brincidofovir 1 mg/kg 2-h IV infusion, male rats, Day 7, 8 h
[4] = brincidofovir 1 mg/kg 2-h IV infusion, male rats, Day 7, 24 h
[5] = brincidofovir 15 mg/kg 2-h IV infusion, female rats, Day 7, 0 h
[6] = brincidofovir 15 mg/kg 2-h IV infusion, male rats, Day 7, 0 h

Question: Which results are given for `CCCCCCCCCCCCCCCCOCCCOP(=O)(O)CO[C@H](CO)Cn1ccc(N)nc1=O` [Brincidofovir]?
Answer: C (Concentration), individual animals (female rats, Day 7, 24 h, listed as BCV): BLQ; C (Concentration), individual animals (male rats, Day 7, 0 h): BLQ; Imputed Concentration, individual animals (brincidofovir 1 mg/kg 2-h IV infusion, female rats, Day 1, 1 h, listed as BCV): 126 ng/mL and 177 ng/mL; Imputed Concentration, individual animals (brincidofovir 1 mg/kg 2-h IV infusion, female rats, Day 1, 2 h, listed as BCV): 164 ng/mL and 155 ng/mL; Imputed Concentration, individual animals (brincidofovir 1 mg/kg 2-h IV infusion, female rats, Day 1, 8 h, listed as BCV): 2.30 ng/mL and 1.45 ng/mL and 0.00 ng/mL; Imputed Concentration, individual animals (brincidofovir 1 mg/kg 2-h IV infusion, female rats, Day 1, 24 h): 0.00 ng/mL; Imputed Concentration, Mean [1]: 0.00 ng/mL; Imputed Concentration, individual animals [1]: 0.00 ng/mL; Imputed Concentration, Mean (brincidofovir 1 mg/kg 2-h IV infusion, female rats, Day 7, 2 h): 95.4 ng/mL; Imputed Concentration, individual animals (brincidofovir 1 mg/kg 2-h IV infusion, female rats, Day 7, 2 h, listed as BCV): 115 ng/mL and 82.1 ng/mL and 89.2 ng/mL; Imputed Concentration, Mean (brincidofovir 1 mg/kg 2-h IV infusion, female rats, Day 7, 8 h): 2.19 ng/mL; Imputed Concentration, individual animals (brincidofovir 1 mg/kg 2-h IV infusion, female rats, Day 7, 8 h, listed as BCV): 6.58 ng/mL and 0.00 ng/mL (2×); Imputed Concentration, Mean [2]: 0.00 ng/mL; Imputed Concentration, individual animals [2]: 0.00 ng/mL; Imputed Concentration, individual animals (brincidofovir 1 mg/kg 2-h IV infusion, male rats, Day 1, 1 h, listed as BCV): 244 ng/mL and 280 ng/mL; Imputed Concentration, individual animals (brincidofovir 1 mg/kg 2-h IV infusion, male rats, Day 1, 2 h, listed as BCV): 283 ng/mL and 203 ng/mL; Imputed Concentration, individual animals (brincidofovir 1 mg/kg 2-h IV infusion, male rats, Day 1, 8 h): 0.00 ng/mL; Imputed Concentration, individual animals (brincidofovir 1 mg/kg 2-h IV infusion, male rats, Day 1, 24 h): 0.00 ng/mL; Imputed Concentration, individual animals (brincidofovir 1 mg/kg 2-h IV infusion, male rats, Day 7, 0 h): 0.00 ng/mL; Imputed Concentration, Mean (brincidofovir 1 mg/kg 2-h IV infusion, male rats, Day 7, 2 h): 208 ng/mL; Imputed Concentration, individual animals (brincidofovir 1 mg/kg 2-h IV infusion, male rats, Day 7, 2 h, listed as BCV): 255 ng/mL and 189 ng/mL and 179 ng/mL; Imputed Concentration, Mean [3]: 0.00 ng/mL; Imputed Concentration, individual animals [3]: 0.00 ng/mL; Imputed Concentration, Mean [4]: 0.00 ng/mL; Imputed Concentration, individual animals [4]: 0.00 ng/mL; Imputed Concentration, Mean (brincidofovir 15 mg/kg 2-h IV infusion, female rats, Day 1, 1 h): 3470; Imputed Concentration, individual animals (brincidofovir 15 mg/kg 2-h IV infusion, female rats, Day 1, 1 h, listed as BCV): 3030 and 3930 and 3450; Imputed Concentration, Mean (brincidofovir 15 mg/kg 2-h IV infusion, female rats, Day 1, 2 h): 2570; Imputed Concentration, individual animals (brincidofovir 15 mg/kg 2-h IV infusion, female rats, Day 1, 2 h, listed as BCV): 2460 and 1860 and 3380; Imputed Concentration, Mean (brincidofovir 15 mg/kg 2-h IV infusion, female rats, Day 1, 8 h): 6.53; Imputed Concentration, individual animals (brincidofovir 15 mg/kg 2-h IV infusion, female rats, Day 1, 8 h, listed as BCV): 5.05 and 7.97 and 6.57; Imputed Concentration, Mean (brincidofovir 15 mg/kg 2-h IV infusion, female rats, Day 1, 24 h): 2.02; Imputed Concentration, individual animals (brincidofovir 15 mg/kg 2-h IV infusion, female rats, Day 1, 24 h, listed as BCV): 2.32 and 1.25 and 2.48; Imputed Concentration, Mean [5]: 0.00; Imputed Concentration, individual animals [5]: 0.00; Imputed Concentration, Mean (brincidofovir 15 mg/kg 2-h IV infusion, female rats, Day 7, 2 h): 1660; Imputed Concentration, individual animals (brincidofovir 15 mg/kg 2-h IV infusion, female rats, Day 7, 2 h, listed as BCV): 2220 and 995 and 1750; Imputed Concentration, individual animals (brincidofovir 15 mg/kg 2-h IV infusion, female rats, Day 7, 8 h, listed as BCV): 5.32 and 6.27 and 4.75; Imputed Concentration, Mean (brincidofovir 15 mg/kg 2-h IV infusion, male rats, Day 1, 1 h): 4370; Imputed Concentration, individual animals (brincidofovir 15 mg/kg 2-h IV infusion, male rats, Day 1, 1 h, listed as BCV): 4020 and 4030 and 5060; Imputed Concentration, Mean (brincidofovir 15 mg/kg 2-h IV infusion, male rats, Day 1, 2 h): 2840; Imputed Concentration, individual animals (brincidofovir 15 mg/kg 2-h IV infusion, male rats, Day 1, 2 h, listed as BCV): 2510 and 2990 and 3010; Imputed Concentration, Mean (brincidofovir 15 mg/kg 2-h IV infusion, male rats, Day 1, 8 h): 9.59; Imputed Concentration, individual animals (brincidofovir 15 mg/kg 2-h IV infusion, male rats, Day 1, 8 h, listed as BCV): 10.7 and 8.23 and 9.85; Imputed Concentration, Mean (brincidofovir 15 mg/kg 2-h IV infusion, male rats, Day 1, 24 h): 1.22; Imputed Concentration, individual animals (brincidofovir 15 mg/kg 2-h IV infusion, male rats, Day 1, 24 h, listed as BCV): 1.20 and 1.10 and 1.36; Imputed Concentration, Mean [6]: 0.00; Imputed Concentration, individual animals [6]: 0.00; Imputed Concentration, Mean (brincidofovir 15 mg/kg 2-h IV infusion, male rats, Day 7, 2 h): 1910; Imputed Concentration, individual animals (brincidofovir 15 mg/kg 2-h IV infusion, male rats, Day 7, 2 h, listed as BCV): 1640 and 1940 and 2150; Imputed Concentration, individual animals (brincidofovir 15 mg/kg 2-h IV infusion, male rats, Day 7, 8 h, listed as BCV): 9.82 and 7.60 and 8.73
